Legend:
[1] = biological target: C-C chemokine receptor type 10 (Homo sapiens) (UniProt P46092); test: Agonist activity at CCR10 (unknown origin)
[2] = biological target: C-C chemokine receptor type 10 (Homo sapiens) (UniProt P46092); test: Agonist activity at CCR10 (unknown origin); remark: listed apart in the source

C-C chemokine receptor type 10 (Homo sapiens), sequence (P46092 whole entry, looked up): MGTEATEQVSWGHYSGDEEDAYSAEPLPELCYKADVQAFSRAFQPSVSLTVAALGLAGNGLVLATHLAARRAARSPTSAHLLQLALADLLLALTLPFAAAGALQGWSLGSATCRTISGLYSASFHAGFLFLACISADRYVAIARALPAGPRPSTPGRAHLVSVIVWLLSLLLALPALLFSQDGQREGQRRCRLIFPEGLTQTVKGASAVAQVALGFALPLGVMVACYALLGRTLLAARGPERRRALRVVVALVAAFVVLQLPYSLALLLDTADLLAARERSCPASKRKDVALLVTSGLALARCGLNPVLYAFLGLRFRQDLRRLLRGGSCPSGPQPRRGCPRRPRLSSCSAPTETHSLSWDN

- EC50 [1]: > 10 µM
- IC50 [2]: > 10 µM
SMILES: CC1=CCC[C@H]1NC(=O)Nc1ccc(Cl)c(S(=O)(=O)[C@@]2(C)CCOC2)c1O
